According to PubChem BioAssay AID230 (DTP/NCI, 2004):
Several values for one entry are separate records, joined by “and”; a condition that tells them apart may be missing. Identical values can stand only once. Toxic doses and inconclusive results are not listed. Rule for the calls: active = survival T/C of 150% or more; inactive = T/C below 125% in these data.

Test system: C3H/He mice, Gardner lymphosarcoma 6C3HED ip, survival T/C
Assay: NCI In Vivo Anticancer Drug Screen. Data for tumor model Lymphosarcoma Gardner 6C3HED (intraperitoneal) in C3H/He mice
Conditions: vehicle: saline, higher = longer survival
Protocol: The antitumor activity of compounds was measured in mice bearing transplantable tumors. Survival or tumor size were measured and the results are expressed as the measurement made in the treated group (T) divided by the measurement made in the vehicle treated control group (C). The tumor model used in this assay is Lymphosarcoma Gardner 6C3HED (intraperitoneal) in C3H/He mice

[1] = endpoint: survival time, mean or median, dose: 1.0 mg/kg/injection, schedule: Q01DX010 (ip)
[2] = endpoint: survival time, mean or median, dose: 2.0 mg/kg/injection, schedule: Q01DX010 (ip)
[3] = endpoint: survival time, mean or median, dose: 10.0 mg/kg/injection, schedule: Q01DX010 (ip)
[4] = endpoint: survival time, mean or median, dose: 20.0 mg/kg/injection, schedule: Q01DX010 (ip)
[5] = endpoint: survival time, mean or median, dose: 40.0 mg/kg/injection, schedule: Q01DX010 (ip)
[6] = endpoint: survival time, mean or median, dose: 80.0 mg/kg/injection, schedule: Q01DX010 (ip)
[7] = endpoint: survival time, mean or median, dose: 25.0 mg/kg/injection, schedule: Q01DX010 (ip)
[8] = endpoint: survival time, mean or median, dose: 50.0 mg/kg/injection, schedule: Q01DX010 (ip)
[9] = endpoint: survival time, mean or median, dose: 5.0 mg/kg/injection, schedule: Q01DX010 (ip)
[10] = endpoint: survival time, mean or median, dose: 2.5 mg/kg/injection, schedule: Q01DX010 (ip)

Measured: T/C

CC(C)CC(NC(=O)C(O)C(N)Cc1ccccc1)C(=O)O (stereo unspecified)
inactive: endpoint: median survival time, dose: 2.5 mg/kg/injection, schedule: Q01DX005 (oral) 94 % of control | endpoint: median survival time, dose: 5.0 mg/kg/injection, schedule: Q01DX005 (oral) 95 % of control | endpoint: median survival time, dose: 10.0 mg/kg/injection, schedule: Q01DX005 (oral) 95 % of control

Nc1ncccc1C(=O)O
inactive: endpoint: survival time, mean or median, dose: 62.5 mg/kg/injection, schedule: Q01DX010 (ip) 100 % of control | endpoint: survival time, mean or median, dose: 125.0 mg/kg/injection, schedule: Q01DX010 (ip) 100 % of control | endpoint: survival time, mean or median, dose: 250.0 mg/kg/injection, schedule: Q01DX010 (ip) 107 % of control | endpoint: survival time, mean or median, dose: 500.0 mg/kg/injection, schedule: Q01DX010 (ip) 96 % of control

Nc1nc(=S)c2ncn(C3OC(CO)C(O)C3O)c2[nH]1 (stereo unspecified)
inactive: endpoint: median survival time, dose: 0.5 mg/kg/injection, schedule: Q01DX009 (ip) 114 % of control | endpoint: median survival time, dose: 1.0 mg/kg/injection, schedule: Q01DX009 (ip) 100 % of control | endpoint: median survival time, dose: 2.0 mg/kg/injection, schedule: Q01DX009 (ip) 105 % of control | endpoint: median survival time, dose: 4.0 mg/kg/injection, schedule: Q01DX009 (ip) 94 % of control | endpoint: median survival time, dose: 8.0 mg/kg/injection, schedule: Q01DX009 (ip) 96 % of control | endpoint: survival time, mean or median, dose: 0.5 mg/kg/injection, schedule: Q01DX010 (ip) 119 % of control | [1] 112 % of control and 115 % of control | [2] 100 % of control and 111 % of control | endpoint: survival time, mean or median, dose: 4.0 mg/kg/injection, schedule: Q01DX010 (ip) 96 % of control

Cn1c(N)nc2nc[nH]c2c1=S
inactive: [3] 96 % of control and 103 % of control | [4] 96 % of control and 107 % of control | [5] 100 % of control and 107 % of control | [6] 96 % of control

CO[C@H](C(=O)[C@@H](O)[C@@H](C)O)[C@@H]1Cc2cc3cc(OC4CC(OC5CC(O)C(O)C(C)O5)C(O)C(C)O4)c(C)c(O)c3c(O)c2C(=O)[C@H]1OC1CC(OC2CC(OC3CC(C)(O)C(O)C(C)O3)C(O)C(C)O2)C(O)C(C)O1 (stereo partly specified)
active: [1] 300 % of control | [2] 188 % of control
inactive: endpoint: survival time, mean or median, dose: 0.13 mg/kg/injection, schedule: Q01DX010 (ip) 111 % of control | endpoint: survival time, mean or median, dose: 0.25 mg/kg/injection, schedule: Q01DX010 (ip) 123 % of control

C[C@@H]1C[C@H]2CC[C@H](O2)[C@H](C)C(=O)O[C@@H](C)C[C@@H]2CC[C@@H](O2)[C@@H](C)C(=O)O[C@H](C)C[C@H]2CC[C@H](O2)[C@H](C)C(=O)O[C@@H](C)C[C@@H]2CC[C@@H](O2)[C@@H](C)C(=O)O1
inactive: endpoint: survival time, mean or median, dose: 12.5 mg/kg/injection, schedule: Q01DX010 (ip) 100 % of control | [7] 92 % of control | [8] 96 % of control

CS(=O)(=O)OCC(O)C(O)C(O)C(O)COS(C)(=O)=O (stereo unspecified)
inactive: [7] 94 % of control | [8] 100 % of control | endpoint: survival time, mean or median, dose: 100.0 mg/kg/injection, schedule: Q01DX010 (ip) 94 % of control and 100 % of control | endpoint: survival time, mean or median, dose: 200.0 mg/kg/injection, schedule: Q01DX010 (ip) 100 % of control and 105 % of control | endpoint: survival time, mean or median, dose: 400.0 mg/kg/injection, schedule: Q01DX010 (ip) 110 % of control

CO[C@@H]1[C@@H](OC2OC(C)C(OC3CC(C)(O)C(OC(=O)CC(C)C)C(C)O3)C(N(C)C)C2O)[C@@H](CC=O)C[C@@H](C)C(=O)/C=C/C2O[C@H]2C[C@@H](C)OC(=O)C[C@H]1OC(C)=O (stereo partly specified)
inactive: endpoint: survival time, mean or median, dose: 18.8 mg/kg/injection, schedule: Q01DX010 (ip) 94 % of control | endpoint: survival time, mean or median, dose: 37.5 mg/kg/injection, schedule: Q01DX010 (ip) 102 % of control

O=c1[nH]c(=O)n(C2CC(O)C(CO)O2)cc1F (stereo unspecified)
107 % of control and 229 % of control: [4]
inactive: [3] 100 % of control and 115 % of control
115 % of control and 212 % of control: [5]
115 % of control and 303 % of control: [9]

CC1CCOS(=O)O1 (stereo unspecified)
inactive: [10] 93 % of control | [9] 93 % of control | [3] 92 % of control and 103 % of control | [4] 89 % of control and 96 % of control

COc1cc(-c2ccc(Nc3ccccc3C(=O)O)c(OC)c2)ccc1N
inactive: [9] 110 % of control | [3] 96 % of control and 107 % of control | [4] 92 % of control | [5] 89 % of control and 96 % of control | [6] 89 % of control

O=C(O)c1[nH]c(=O)[nH]c(=O)c1F
inactive: endpoint: survival time, mean or median, dose: 1.25 mg/kg/injection, schedule: Q01DX010 (ip) 111 % of control | [10] 95 % of control and 107 % of control | [9] 92 % of control and 103 % of control | [3] 96 % of control
